Assay [1] concerns Beagle dogs. Kind of assay: MgSO4 induced intestinal lavage in dogs. Format: in vivo, dog. The conditions noted are these: Canis lupus familiaris; po, 1 hour before oral MgSO4 (200 ml); liquid stools within 4 hours; read-out: MgSO4 induced intestinal lavage ED50 (95% c.l.). The procedure:
(§1) Beagle dogs of both sexes and varying in body weight were used. During the experiments, the dogs were individually housed in cages. They were uniquely identified by an ear tattoo number (received at the time of weaning). The animals were fasted overnight but were given free access to fresh tap water via automatic drinking nipples in the back of the cage.
Beagle dogs (of both sexes and varying in body weight, 16 hours deprived from food) were orally pretreated with the test compound (0.5 ml/kg) and challenged 1 hour later with an oral administration of magnesium sulphate (MgSO4.7H2O, 64 g/l, 0.26 M; 200 ml). The onset of MgSO4-induced intestinal lavage was assessed over a period of 4 hours after challenge. Liquid stools within 4 hours occured almost never in control animals treated with distilled water (3.0% false positives; n>100) and were considered to reflect significant acceleration of the MgSO4-induced intestinal lavage. Doses in the active dose range were given to five animals each, tested in separate experimental sessions including solvent-treated control animals.

The target in the next assay is T1, 5HT3 receptor (Mus musculus, UniProt P23979).
T1 construct: Cells were homogenized in tris.HCl buffer; endogenous in cells; host or cells: NxG 108CC15 (NG108-15) cell membranes
T1 sequence (P23979 24-489): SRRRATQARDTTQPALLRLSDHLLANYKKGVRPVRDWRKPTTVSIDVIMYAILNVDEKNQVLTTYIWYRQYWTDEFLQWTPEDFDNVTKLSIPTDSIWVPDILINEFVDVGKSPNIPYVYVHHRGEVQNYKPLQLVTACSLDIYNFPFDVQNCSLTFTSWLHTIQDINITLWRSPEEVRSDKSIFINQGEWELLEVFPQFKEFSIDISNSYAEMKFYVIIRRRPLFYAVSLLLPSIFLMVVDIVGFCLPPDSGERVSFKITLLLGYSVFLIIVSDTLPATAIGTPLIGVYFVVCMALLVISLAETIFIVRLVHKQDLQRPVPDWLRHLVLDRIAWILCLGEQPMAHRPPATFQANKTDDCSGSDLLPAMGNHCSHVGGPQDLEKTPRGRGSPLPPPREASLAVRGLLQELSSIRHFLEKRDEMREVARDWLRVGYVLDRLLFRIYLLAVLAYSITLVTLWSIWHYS
Kind of assay: In vitro 5HT3 receptor binding with [3H]GR 65630. On the procedure: The incubation was run for 60 minutes at 37° C. Labelled membranes were collected and […] by rapid filtration under suction over […] filters (presoaked in 0.1% polyethyleneimine for at least 1 hour) using a 40-well filtration manifold. […] All experiments were repeated independently at least two times. Radioactivity on the filters was counted in a Packard Tri-carb 1600CA liquid scintillation analyzer. Counting data were collected directly in a Macintosh SE personal computer and further transferred to a Macintosh II personal computer. Counting data from assays in the presence of a compound were automatically expressed as percent of total binding measured in the absence of test compound. Inhibition curves plotting percent of total binding versus the log concentrations of the test compound were automatically generated.

Assay [2] relates to Beagle dogs. Kind of assay: KleanPrep-induced intestinal lavage in dogs. To be noted: for ED50: Canis lupus familiaris, oral pretreatment one hour earlier. It counts as in vivo, dog. On the procedure:
as §1
The dogs were orally pretreated with test compound or distilled water (0.5 ml/kg) and 1 hour later challenged by gavage with KleanPrep® solution. Dependent on the type of experiment, the KleanPrep® solution was administered more than once at 15 minutes intervals. The standard administration volume was 200 ml. The occurrence of liquid stools at 1, 2, 3, 4, 5 and 6 hours after the first administration of KleanPrep® was noted. The KleanPrep® solution consisted of polyethyleneglycol 3350 (59 g/l), sodium sulfate (5.685 g/l), sodium hydrogencarbonate (1.685 g/l), sodium chloride (1.465 g/l), potassium chloride (0.7425 g/l), aspartate (0.0494 g/l) and vanille (0.3291 g/l).
Each dose of the test compounds was given to 5 animals.

Setting [3] is: fourth experiment: 2×200 ml KleanPrep, relative to ED50 for within 4 hours.

“And” between values parts separate entries of the source, which are not always exact repeats. Equal entries are not always repeated. Where two headings read alike, the source gives them in different places.

On to `Cc1nccn1CC1CCc2c(c3ccccc3n2C)C1=O` (racemic) [(±)-Ondansetron], for which the ED50 (commonly the dose at which the effect has come halfway, by size or by number of responders) in the assay with Beagle dogs [1] turned out to be 0.097 mg/kg.
In the case of `COc1cc(N)c(Cl)cc1C(=O)NC1CCN2CCCC1C2` (racemic) [(±)-Renzapride], the median effective dose (ED50) in the assay on Beagle dogs [1] came to 0.074 mg/kg. In addition, the affinity at 5HT3 receptor, expressed as Ki, was 10 nM.
In the case of `COc1cc(N)c(Cl)cc1C(=O)NC1CN2CCC1CC2` (racemic) [(±)-Zacopride], in the assay on Beagle dogs [1], the ED50 came out at 0.023 mg/kg.
Consider `CO[C@@H]1CN(CCCNc2nccc(=O)[nH]2)CC[C@@H]1NC(=O)c1cc(Cl)c(N)c2c1OC(C)(C)C2` (relative stereo) [Compound A, (−)-cis-4-amino-5-chloro-2,3-dihydro-N-[1-[3-[(3,4-dihydro-4-oxo-2-pyrimidinyl)amino]propyl]-3-methoxy-4-piperidinyl]-2,2-dimethyl-7-benzofurancarboxamide], for which the ED50 in the assay on Beagle dogs [2] (read-out: ED50 liquid stools within 1 hour, fourth experiment: 2×200 ml KleanPrep) stood at 0.085 mg/kg. In addition, in the assay with Beagle dogs [2] (fourth experiment: 2×200 ml KleanPrep, read-out: ED50 liquid stools within 4 hours), the ED50 was determined as 0.0036 mg/kg. In the assay with Beagle dogs [2] (setting [3]), the “dose increment for liquid stools within 1 hour” value was 24 times, the “dose increment for liquid stools within 2 hours” value is 3 times and the “dose increment for liquid stools within 3 hours” value is given as 1.1 times. The “dogs displaying liquid stools within 2 hours after KleanPrep administration” value with Beagle dogs [2] (second experiment: single 200 ml KleanPrep, 0.16 mg/kg p.o. one hour earlier) was “three out of five”. Also, the “dogs displaying first liquid stool within 2 hours after first administration of KleanPrep” value in the assay on Beagle dogs [2] (third experiment: 4×200 ml KleanPrep at 15 minute intervals, 0.16 mg/kg p.o. one hour earlier) is “all five”. Also, the “time of first liquid stool after first administration of KleanPrep (individual dogs)” value in the assay with Beagle dogs [2] (third experiment: 4×200 ml KleanPrep at 15 minute intervals, 0.16 mg/kg p.o. one hour earlier, 0.16 mg/kg) was 38 min and 39 min and 42 min and 52 min and 77 min. Further, in the assay on Beagle dogs [1], the ED50 worked out at 0.0027 mg/kg. Further, the Ki – broadly, the equilibrium dissociation constant of an inhibitor or competing ligand from its target – on 5HT3 receptor (N×G 108CC15 cell membranes, [3H]GR 65630 2 nM, 60 min 37° C, logarithmic mean and 95% confidence limits, read-out: 5HT3 receptor Ki (95% c.l.)) came out at 0.58 nM.
In the case of `CN1C2CCCC1CC(NC(=O)c1nn(C)c3ccccc13)C2` (stereo not drawn) [(endo)-Granisetron], the ED50 in the assay on Beagle dogs [1] turned out to be 0.014 mg/kg.
The same measure, in the same setting: the value for `CN1[C@@H]2CC[C@H]1C[C@@H](OC(=O)c1c[nH]c3ccccc13)C2` [(endo)-Tropisetron] was 0.074 mg/kg.
As to `Cn1cc(C(=O)[C@@H]2CCc3nc[nH]c3C2)c2ccccc21` [(−)-YM-060], the ED50 in the assay with Beagle dogs [1] stood at 0.0012 mg/kg. The same molecule registered a Ki on 5HT3 receptor of 0.14 nM.
Turning to `CC(C)n1c(=O)n(C(=O)N[C@H]2C[C@H]3CC[C@@H](C2)N3C)c2ccccc21` [BIMU-8], the ED50 with Beagle dogs [1] amounted to 0.016 mg/kg. Moreover, the Ki on 5HT3 receptor worked out at 0.29 nM.
For the molecule `CN1[C@@H]2CC[C@H]1C[C@@H](OC(=O)c1cc(Cl)cc(Cl)c1)C2` [Bemesetron], the ED50 in the assay on Beagle dogs [1] is 0.77 mg/kg. This molecule also registered an inhibition constant Ki on 5HT3 receptor of 8 nM.
In the case of `CCn1c(=O)n(C(=O)OC2C[C@H]3CC[C@@H](C2)N3C)c2ccccc21` (stereo partly drawn) [DAU-6236], the ED50 in the assay with Beagle dogs [1] is 0.049 mg/kg. On 5HT3 receptor, this molecule gave a Ki of 6.6 nM.

The values above are taken from patent publication US6555546B2, “Use of 5HT3 antagonists for promoting intestinal lavage” (Janssen Pharmaceutics, N.V., priority 1997, dated 2003).
